According to patent publication US11566007B2, “Ras inhibitors” (Revolution Medicines, Inc., priority 2019, dated 2023):
“And” between values parts separate entries of the source, which are not always exact repeats. Equal entries are not always repeated.

Experiments:
Format in all cases: biochemical
K-Ras G13C = K-Ras G13C (Homo sapiens (Human), UniProt P01116+P62937, G13C); experiment: Ras-Raf (BRAF RBD) disruption / FRET / MOA assay, KRAS G13C; settings: KRAS G13C; Ras-Raf disruption/FRET/MOA assay; read-out: IC50* KRAS G13C FRET data
How it was run: (§1)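 A 10-point, 3-fold dilution series topping at 30 μM final was incubated 3 h at 25° C with the Ras/cyclophilin A/BRAF RBD mixture.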

KRAS G12V = KRAS G12V (Homo sapiens (Human), UniProt P01116+P62937, G12V); experiment: Ras-Raf (BRAF RBD) disruption / FRET / MOA assay, KRAS G12V; settings: read-out: IC50* KRAS G12V FRET data
How it was run: as §1

K-Ras G12C = K-Ras G12C (Homo sapiens (Human), UniProt P01116+P62937, G12C); experiment: Ras-Raf (BRAF RBD) disruption / FRET / MOA assay, KRAS G12C; settings: KRAS G12C; Ras-Raf disruption/FRET/MOA assay; read-out: IC50* KRAS G12C FRET data
How it was run: as §1

NRAS WT = NRAS WT (Homo sapiens (Human), UniProt P01111+P62937); experiment: Ras-Raf (BRAF RBD) disruption / FRET / MOA assay, NRAS WT; settings: read-out: IC50* NRAS WT FRET data
How it was run: (§2)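 Compounds (30 μM top final, 10-point 3-fold dilutions) incubated 3 h at 25° C with nucleotide-loaded Ras, cyclophilin A and BRAF RBD. Detection with 10 nM anti-His Eu-W1024 and 50 nM anti-GST allophycocyanin over another 1.5 h. Lowered TR-FRET ratio relative to DMSO wells gives IC50.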

NRAS G12C = NRAS G12C (Homo sapiens (Human), UniProt P01111+P62937, G12C); experiment: Ras-Raf (BRAF RBD) disruption / FRET / MOA assay, NRAS G12C; settings: read-out: IC50* NRAS G12C FRET data
How it was run: as §1

KRAS G12D = KRAS G12D (Homo sapiens (Human), UniProt P01116+P62937, G12D); experiment: Ras-Raf (BRAF RBD) disruption / FRET / MOA assay, KRAS G12D; settings: Ras-Raf disruption/FRET/MOA assay; class symbols; read-out: KRAS G12D FRET data IC50
How it was run: as §1

KRAS G13D = KRAS G13D (Homo sapiens (Human), UniProt P01116+P62937, G13D); experiment: Ras-Raf (BRAF RBD) disruption / FRET / MOA assay, KRAS G13D; settings: read-out: IC50* KRAS G13D FRET data
How it was run: as §1

KRAS Q61H = KRAS Q61H (Homo sapiens (Human), UniProt P01116+P62937, Q61H); experiment: Ras-Raf (BRAF RBD) disruption / FRET / MOA assay, KRAS Q61H; settings: Ras-Raf disruption/FRET/MOA assay; class symbols; read-out: KRAS Q61H FRET data IC50
How it was run: as §2

NRAS Q61K = NRAS Q61K (Homo sapiens (Human), UniProt P01111+P62937, Q61K); experiment: Ras-Raf (BRAF RBD) disruption / FRET / MOA assay, NRAS Q61K; settings: NRAS Q61K; Ras-Raf disruption/FRET/MOA assay; read-out: IC50* NRAS Q61K FRET data
How it was run: as §2

KRAS Q61H, sequence (P01116-2 other isoform, or with tags, fused parts or gaps Q61H): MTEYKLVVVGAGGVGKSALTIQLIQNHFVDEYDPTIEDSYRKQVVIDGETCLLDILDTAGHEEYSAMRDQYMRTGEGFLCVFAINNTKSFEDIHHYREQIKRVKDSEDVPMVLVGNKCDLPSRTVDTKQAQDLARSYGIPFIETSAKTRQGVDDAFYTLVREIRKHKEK
KRAS Q61H, sequence (P62937 whole entry): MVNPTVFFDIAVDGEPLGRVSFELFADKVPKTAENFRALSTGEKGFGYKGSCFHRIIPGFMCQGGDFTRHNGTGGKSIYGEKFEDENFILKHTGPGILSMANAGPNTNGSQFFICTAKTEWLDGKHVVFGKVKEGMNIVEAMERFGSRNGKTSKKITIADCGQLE
KRAS G12V, sequence (P01116-2 other isoform, or with tags, fused parts or gaps G12V): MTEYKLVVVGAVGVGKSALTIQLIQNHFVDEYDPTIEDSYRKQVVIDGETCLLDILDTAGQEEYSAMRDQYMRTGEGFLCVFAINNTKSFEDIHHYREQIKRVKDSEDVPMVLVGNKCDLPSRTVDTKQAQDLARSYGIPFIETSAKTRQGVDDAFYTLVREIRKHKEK
KRAS G12V, sequence (P62937 whole entry): as the sequence (P62937 whole entry) above
NRAS Q61K, sequence (P01111 whole entry Q61K): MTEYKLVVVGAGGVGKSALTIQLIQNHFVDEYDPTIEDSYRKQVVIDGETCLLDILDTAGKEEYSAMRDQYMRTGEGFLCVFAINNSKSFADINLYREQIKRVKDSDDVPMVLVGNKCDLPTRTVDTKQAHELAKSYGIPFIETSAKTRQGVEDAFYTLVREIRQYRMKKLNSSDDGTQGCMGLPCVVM
NRAS Q61K, sequence (P62937 whole entry): as the sequence (P62937 whole entry) above
NRAS G12C, sequence (P01111 whole entry G12C): as the sequence (P01111 whole entry Q61K) above, with G12C, K61Q counted along it
NRAS G12C, sequence (P62937 whole entry): as the sequence (P62937 whole entry) above
NRAS WT, sequence (P01111 whole entry): as the sequence (P01111 whole entry Q61K) above, with K61Q counted along it
NRAS WT, sequence (P62937 whole entry): as the sequence (P62937 whole entry) above
K-Ras G12C, sequence (P01116-2 other isoform, or with tags, fused parts or gaps G12C): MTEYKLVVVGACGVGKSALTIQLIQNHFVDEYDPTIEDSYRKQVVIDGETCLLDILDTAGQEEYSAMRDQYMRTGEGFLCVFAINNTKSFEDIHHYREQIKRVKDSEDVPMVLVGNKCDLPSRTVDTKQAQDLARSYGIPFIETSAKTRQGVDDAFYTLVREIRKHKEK
K-Ras G12C, sequence (P62937 whole entry): as the sequence (P62937 whole entry) above
K-Ras G13C, sequence (P01116-2 other isoform, or with tags, fused parts or gaps G13C): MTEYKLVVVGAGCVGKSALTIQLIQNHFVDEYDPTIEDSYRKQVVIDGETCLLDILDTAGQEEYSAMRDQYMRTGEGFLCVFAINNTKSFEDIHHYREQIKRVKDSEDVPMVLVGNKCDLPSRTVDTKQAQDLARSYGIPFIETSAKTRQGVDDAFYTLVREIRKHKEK
K-Ras G13C, sequence (P62937 whole entry): as the sequence (P62937 whole entry) above
KRAS G13D, sequence (P01116-2 other isoform, or with tags, fused parts or gaps G13D): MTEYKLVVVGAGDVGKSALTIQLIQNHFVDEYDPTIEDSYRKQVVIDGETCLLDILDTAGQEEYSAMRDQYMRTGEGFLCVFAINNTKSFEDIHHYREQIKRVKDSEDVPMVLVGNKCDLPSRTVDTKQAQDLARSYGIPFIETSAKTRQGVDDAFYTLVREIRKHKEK
KRAS G13D, sequence (P62937 whole entry): as the sequence (P62937 whole entry) above
KRAS G12D, sequence (P01116-2 other isoform, or with tags, fused parts or gaps G12D): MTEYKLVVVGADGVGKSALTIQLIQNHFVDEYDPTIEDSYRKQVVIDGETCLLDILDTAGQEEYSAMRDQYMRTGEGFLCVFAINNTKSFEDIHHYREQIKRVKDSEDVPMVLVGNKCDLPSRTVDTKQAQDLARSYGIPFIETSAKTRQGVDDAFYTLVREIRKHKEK
KRAS G12D, sequence (P62937 whole entry): as the sequence (P62937 whole entry) above

Compound	IC50 (K-Ras G13C)	IC50 (KRAS G12V)	IC50 (K-Ras G12C)	IC50 (NRAS WT) [µM]	IC50 (NRAS G12C)	IC50 (KRAS G12D)	IC50 (KRAS G13D)	IC50 (KRAS Q61H) [µM]	IC50 (NRAS Q61K) [µM]
C=CC(=O)N1CC2(C1)OCCCN2C(=O)N(C)[C@H](C(=O)N[C@H]1Cc2nc(cs2)-c2ccc3c(c2)c(c(-c2cccnc2[C@H](C)OC)n3CC)CC(C)(C)COC(=O)[C@@H]2CCCN(N2)C1=O)C(C)C (atropisomer, axis not shown) [Example A735, 2-acryloyl-N-((2S)-1-(((6^3S,4S,Z)-1^1-ethyl-1^2-(2-((S)-1-methoxyethyl)pyridin-3-yl)-10,10-dimethyl-5,7-dioxo-6^1,6^2,6^3,6^4,6^5,6^6-hexahydro-1^1H-8-oxa-2(4,2)-thiazola-1(5,3)-indola-6(1,3)-pyridazinacycloundecaphane-4-yl)amino)-3-methyl-1-oxobutan-2-yl)-N-methyl-5-oxa-2,9-diazaspiro[3.5]nonane-9-carboxamide]	1 to 10 µM	> 10 µM	< 0.01 µM	1 to 10	< 0.01 µM	> 10 µM	> 10 µM	1 to 10	1 to 10
CCn1c(-c2cccnc2[C@H](C)OC)c2c3cc(ccc31)-c1csc(n1)C[C@H](NC(=O)CCO[C@@H]1CCN(C(=O)C#CC(C)(C)N3CCC3)C1)C(=O)N1CCC[C@H](N1)C(=O)OCC(C)(C)C2 (atropisomer, axis not shown) [Example A366]	0.1 to 1 µM	0.1 to 1 µM	0.01 to 0.1 µM	1 to 10	0.1 to 1 µM	1 to 10 µM	1 to 10 µM	0.1 to 1	1 to 10
C=CC(=O)N1CC[C@H](C(=O)N(C)[C@H](C(=O)N[C@H]2Cc3cc(cc(C(F)F)c3)-c3ccc4c(c3)c(c(-c3cccnc3[C@H](C)OC)n4CC(F)(F)F)CC(C)(C)COC(=O)[C@@H]3CCCN(N3)C2=O)C(C)C)C1 (atropisomer, axis not shown) [Example A372]	0.1 to 1 µM	1 to 10 µM	0.1 to 1 µM	1 to 10	0.1 to 1 µM	> 10 µM	1 to 10 µM	0.1 to 1	1 to 10
C=CC(=O)N1CC[C@H](N(C)C(=O)N(C)[C@H](C(=O)N[C@H]2Cc3nc(cs3)-c3ccc4c(c3)c(c(-c3cccnc3[C@H](C)OC)n4CC)CC(C)(C)COC(=O)[C@@H]3CCCN(N3)C2=O)C(C)C)C1 (atropisomer, axis not shown) [Example A728]	0.1 to 1 µM	0.1 to 1 µM	0.1 to 1 µM	0.1 to 1	0.1 to 1 µM	1 to 10 µM	1 to 10 µM	0.1 to 1	0.1 to 1
C=CC(=O)N1CCC2(C1)CN(C(=O)N(C)[C@H](C(=O)N[C@H]1Cc3nc(cs3)-c3ccc4c(c3)c(c(-c3cccnc3[C@H](C)OC)n4CC(F)(F)F)CC(C)(C)COC(=O)[C@@H]3CCCN(N3)C1=O)C(C)C)C2 [Example A603]	0.01 to 0.1 µM	0.1 to 1 µM	0.01 to 0.1 µM	0.01 to 0.1	0.01 to 0.1 µM	0.1 to 1 µM	0.1 to 1 µM	0.01 to 0.1	0.01 to 0.1
C=CS(=O)(=O)N1CC[C@H](C(=O)N(C)[C@H](C(=O)N[C@H]2Cc3cc(O)cc(c3)-c3ccc4c(c3)c(c(-c3cncnc3)n4CC)CC(C)(C)COC(=O)[C@@H]3CCCN(N3)C2=O)C(C)C)C1 [Example A172]	0.01 to 0.1 µM	1 to 10 µM	0.01 to 0.1 µM	1 to 10	0.01 to 0.1 µM	> 10 µM	> 10 µM	0.1 to 1	1 to 10
C=CC(=O)N(C)[C@H]1C[C@@H](N(C)C(=O)N(C)[C@H](C(=O)N[C@H]2Cc3nc(cs3)-c3ccc4c(c3)c(c(-c3cccnc3[C@H](C)OC)n4CC)CC(C)(C)COC(=O)[C@@H]3CCCN(N3)C2=O)C(C)C)C1 (atropisomer, axis not shown) [Example A704]	0.1 to 1 µM	0.1 to 1 µM	0.01 to 0.1 µM	0.01 to 0.1	0.01 to 0.1 µM	0.1 to 1 µM	0.1 to 1 µM	0.01 to 0.1	0.01 to 0.1
C=CC(=O)N1CC[C@H](C(=O)N(C)[C@H](C(=O)N[C@H]2Cc3cc(C)cc(c3)-c3ccc4c(c3)c(c(-c3cccnc3[C@H](C)OC)n4CC)CC(C)(C)COC(=O)[C@@H]3CCCN(N3)C2=O)C(C)C)C1 (atropisomer, axis not shown) [Example A498]	1 to 10 µM	1 to 10 µM	0.1 to 1 µM	1 to 10	0.1 to 1 µM	> 10 µM	> 10 µM	1 to 10	1 to 10
CCn1c(-c2cccnc2[C@H](C)OC)c2c3cc(ccc31)N1CCO[C@@H](C[C@H](NC(=O)[C@@H](COC3CN(C(=O)C#CC(C)(C)N(C)C)C3)C(C)C)C(=O)N3CCC[C@H](N3)C(=O)OCC(C)(C)C2)C1 (atropisomer, axis not shown) [Example A377, (2R)-2-(((1-(4-(dimethylamino)-4-methylpent-2-ynoyl)azetidin-3-yl)oxy)methyl)-N-((2^2S,6^3S,4S)-1^1-ethyl-1^2-(2-((S)-1-methoxyethyl)pyridin-3-yl)-10,10-dimethyl-5,7-dioxo-6^1,6^2,6^3,6^4,6^5,6^6-hexahydro-1^1H-8-oxa-2(4,2)-morpholina-1(5,3)-indola-6(1,3)-pyridazinacycloundecaphane-4-yl)-3-methylbutanamide]	1 to 10 µM	> 10 µM	< 0.01 µM	> 10	< 0.01 µM	> 10 µM	> 10 µM	> 10	> 10
CCn1c(-c2cccnc2[C@H](C)OC)c2c3cc(ccc31)-c1csc(n1)C[C@H](NC(=O)CCOC1CN(C(=O)C#CC(C)(C)N(C)C)C1)C(=O)N1CCC[C@H](N1)C(=O)OCC(C)(C)C2 (atropisomer, axis not shown) [Example A427, 3-((1-(4-(dimethylamino)-4-methylpent-2-ynoyl)azetidin-3-yl)oxy)-N-((6^3S,4S,Z)-1^1-ethyl-1^2-(2-((S)-1-methoxyethyl)pyridin-3-yl)-10,10-dimethyl-5,7-dioxo-6^1,6^2,6^3,6^4,6^5,6^6-hexahydro-1^1H-8-oxa-2(4,2)-thiazola-1(5,3)-indola-6(1,3)-pyridazinacycloundecaphane-4-yl)propanamide]	1 to 10 µM	1 to 10 µM	< 0.01 µM	1 to 10	< 0.01 µM	> 10 µM	1 to 10 µM	1 to 10	1 to 10
C=CC(=O)N1C[C@@H](C)[C@H](N(C)C(=O)N(C)[C@H](C(=O)N[C@H]2Cc3nc(cs3)-c3ccc4c(c3)c(c(-c3cccnc3[C@H](C)OC)n4CC)CC(C)(C)COC(=O)[C@@H]3CCCN(N3)C2=O)C(C)C)C1 (atropisomer, axis not shown) [Example A588]	1 to 10 µM	1 to 10 µM	0.1 to 1 µM	1 to 10	0.1 to 1 µM	1 to 10 µM	1 to 10 µM	0.1 to 1	0.1 to 1
C=CC(=O)N(C)[C@H]1C[C@H](N(C)C(=O)N(C)[C@H](C(=O)N[C@H]2Cc3nc(cs3)-c3ccc4c(c3)c(c(-c3cccnc3[C@H](C)OC)n4CC)CC(C)(C)COC(=O)[C@@H]3CCCN(N3)C2=O)C(C)C)C1 (atropisomer, axis not shown) [Example A712]	0.1 to 1 µM	0.1 to 1 µM	0.01 to 0.1 µM	0.01 to 0.1	0.01 to 0.1 µM	0.1 to 1 µM	0.1 to 1 µM	0.01 to 0.1	0.01 to 0.1
C=CC(=O)N1CC[C@H](C(=O)N(C)[C@H](C(=O)N[C@H]2Cc3cc(O)cc(c3)-c3ccc4c(c3)c(c(-c3cc(C)ccc3[C@H](C)OC)n4CC)CC(C)(C)COC(=O)[C@@H]3CCCN(N3)C2=O)C(C)C)C1 (atropisomer, axis not shown) [Example A167]	0.01 to 0.1 µM and 1 to 10 µM	1 to 10 µM and 0.01 to 0.1 µM	0.1 to 1 µM and < 0.01 µM	0.01 to 0.1	0.1 to 1 µM and < 0.01 µM	> 10 µM and 0.1 to 1 µM	0.1 to 1 µM and > 10 µM	0.01 to 0.1	0.1 to 1
C=CC(=O)NC[C@H]1CCN1C(=O)N(C)[C@H](C(=O)N[C@H]1Cc2nc(cs2)-c2ccc3c(c2)c(c(-c2cccnc2[C@H](C)OC)n3CC)CC(C)(C)COC(=O)[C@@H]2CCCN(N2)C1=O)C(C)C (atropisomer, axis not shown) [Example A356]	0.1 to 1 µM	1 to 10 µM	0.1 to 1 µM	0.1 to 1	0.1 to 1 µM	1 to 10 µM	1 to 10 µM	0.1 to 1	0.1 to 1
